Data as given in the supplement of paper PMC10307832.

Key:
Test in all cases: relative viability (nuclei count vs DMSO), 5 days (fraction); higher = more cells survive
[1] = compound: C1=CC=C(C(=C1)C2=CC=C(C=C2)C3=CSC4=C3C(=C(C(=O)N4)C#N)O)O + C[C@@H](Oc1cc(-c2cnn(C3CCNCC3)c2)cnc1N)c1c(Cl)ccc(F)c1Cl [Crizotinib] (partner 1 µM)
Summary of the method: (§1)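 For relative viability, nuclei counts in treated wells were divided by those in vehicle wells. Lung cancer cell lines had been pin-tool dosed in 1536-well plates the day after seeding and cultured for 5 days, then fixed and stained in one step (final 0.05% Triton X-100, 1% formaldehyde, 1 ug/ml Hoechst) and imaged at 4×. Doses were one drug alone or a fixed anchor-drug dose plus five library-drug doses (not always all listed) in √10 steps, and values are duplicate-plate medians.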

[2] = compound: O=C(CCCCCCNC(=O)c1cnc(N(c2ccccc2)c2ccccc2)nc1)NO [Ricolinostat] + C[C@]1(O)C[C@@H](c2nc(-c3ccc4ccc(-c5ccccc5)nc4c3)c3c(N)nccn32)C1 [Linsitinib] (partner 1 µM)
Summary of the method: as §1

TGX 221 + Lapatinib = compound: CC1=CN2C(=O)C=C(N=C2C(=C1)C(C)NC3=CC=CC=C3)N4CCOCC4 [TGX 221] + CS(=O)(=O)CCNCc1ccc(-c2ccc3ncnc(Nc4ccc(OCc5cccc(F)c5)c(Cl)c4)c3c2)o1 [Lapatinib] (partner 2 µM)
Summary of the method: as §1

[3] = compound: O=C(CCCCCCNC(=O)c1cnc(N(c2ccccc2)c2ccccc2)nc1)NO [Ricolinostat] + Cc1cc(Nc2cc(N3CCN(C)CC3)nc(Sc3ccc(NC(=O)C4CC4)cc3)n2)n[nH]1 [Tozasertib] (partner 0.1 µM)
Summary of the method: as §1

| Cell Line | relative viability ([1]; first compound 0.08 µM) | relative viability ([1]; first compound 0.253 µM) | relative viability ([1]; first compound 0.8 µM) | relative viability ([1]; first compound 2.53 µM) | relative viability ([1]; first compound 8 µM) | relative viability ([2]; first compound 0.08 µM) | relative viability ([2]; first compound 0.253 µM) | relative viability ([2]; first compound 0.8 µM) | relative viability ([2]; first compound 2.53 µM) | relative viability (TGX 221 + Lapatinib; first compound 0.08 µM) | relative viability (TGX 221 + Lapatinib; first compound 0.253 µM) | relative viability (TGX 221 + Lapatinib; first compound 0.8 µM) | relative viability (TGX 221 + Lapatinib; first compound 2.53 µM) | relative viability (TGX 221 + Lapatinib; first compound 8 µM) | relative viability ([3]; first compound 0.08 µM) | relative viability ([3]; first compound 0.253 µM) | relative viability ([3]; first compound 0.8 µM) | relative viability ([3]; first compound 2.53 µM) |
| --- | --- | --- | --- | --- | --- | --- | --- | --- | --- | --- | --- | --- | --- | --- | --- | --- | --- | --- |
| RERF-LC-KJ | 0.875 | 0.885 | 0.858 | 0.86 | 0.763 | 0.952 | 0.77 | 0.897 | 0.824 | 0.837 | 0.824 | 0.749 | 0.829 | 0.84 | 0.531 | 0.406 | 0.324 | 0.265 |
| BEN | 0.771 | 0.948 | 0.886 | 1.02 | 0.776 | 0.795 | 0.751 | 0.953 | 0.592 | 0.721 | 0.719 | 0.506 | 0.68 | 0.605 | 0.539 | 0.558 | 0.534 | 0.517 |
| NCI-H358 | 0.59 | 0.478 | 0.718 | 0.516 | 0.553 | 0.513 | 0.782 | 0.808 | 0.763 | 0.477 | 0.458 | 0.472 | 0.42 | 0.442 | 0.0975 | 0.0893 | 0.107 | 0.0955 |
| NCI-H1944 | 1.08 | 1.19 | 1.07 | 1.23 | 1.04 | 0.976 | 1.11 | 1.1 | 0.895 | 0.705 | 0.784 | 0.777 | 0.836 | 0.714 | 0.245 | 0.246 | 0.221 | 0.23 |
| 201T | 0.992 | 1.08 | 1.06 | 1.01 | 1.11 | 0.915 | 0.964 | 0.986 | 0.904 | – | 1.05 | 0.98 | 1.02 | 0.943 | 0.909 | 0.932 | 0.829 | 0.612 |
| NCI-H647 | 0.79 | 1.24 | 1.23 | 1.14 | 0.924 | 1.13 | 1.23 | 1.16 | 0.698 | 0.95 | 0.869 | 0.955 | 0.746 | 0.61 | 0.315 | 0.195 | 0.27 | 0.206 |
| PC-3 [JPC-3] | 0.986 | 1.12 | 0.915 | 1 | 0.891 | 0.894 | 0.925 | 0.9 | 0.793 | 0.448 | 0.46 | 0.445 | 0.431 | 0.429 | – | 0.84 | 0.851 | 0.771 |
| NCI-H2126 | 0.921 | 1.11 | 1 | 1.09 | 0.912 | 0.539 | 0.724 | 0.7 | 0.627 | 0.61 | 0.752 | 0.667 | 0.616 | 0.717 | – | 0.823 | 0.739 | 0.495 |
| HCC-15 | 0.696 | 0.885 | 0.855 | 0.886 | 0.692 | 0.847 | 0.866 | 0.938 | 0.834 | 0.842 | 0.8 | 0.821 | 0.823 | 0.861 | 0.349 | 0.35 | 0.233 | 0.233 |
| NCI-H2085 | 0.704 | 0.983 | 0.859 | 0.952 | 0.867 | – | 0.868 | 0.922 | 0.865 | 0.666 | 0.644 | 0.681 | 0.469 | 0.462 | 0.688 | 0.731 | 0.613 | 0.523 |
| LOU-NH91 | 0.718 | 0.772 | 0.792 | 0.667 | 0.704 | – | 0.927 | 0.973 | 0.88 | 0.71 | 0.814 | 0.751 | 0.728 | 0.739 | 0.571 | 0.639 | 0.595 | 0.528 |
| NCI-H3122 | 0.317 | 0.34 | 0.248 | 0.271 | 0.302 | 1.01 | 1.02 | 1.13 | 1.05 | 1.01 | 0.994 | 1.02 | 1.01 | 0.985 | – | 0.361 | 0.382 | 0.295 |
| HOP-62 | 0.901 | 1.14 | 0.983 | 1.04 | 0.783 | 1.03 | 0.991 | 0.943 | 0.644 | 1.15 | 0.987 | 1.09 | 1.02 | 0.912 | 0.374 | 0.344 | 0.35 | 0.312 |
| LU99A | 0.52 | 0.524 | 0.598 | 0.616 | 0.527 | 0.495 | 0.473 | 0.455 | 0.419 | 0.957 | 0.865 | 0.939 | 1.01 | 0.913 | 0.258 | 0.276 | 0.224 | 0.239 |
| HCC-44 | 0.845 | 0.833 | 0.754 | 0.901 | 0.625 | 0.575 | 0.682 | 0.589 | 0.545 | 1 | 0.982 | 0.975 | 0.984 | 1.05 | 1.01 | 0.984 | 0.862 | 0.537 |
| NCI-H2405 | 0.787 | 0.844 | 0.855 | 0.812 | 0.787 | 0.515 | 0.93 | 1.05 | 1.1 | 0.836 | 1.02 | 0.971 | 1.02 | 0.901 | 0.693 | 0.752 | 0.677 | 0.731 |
| PC-14 | 0.851 | 0.859 | 0.869 | 1.02 | 0.907 | 0.928 | 0.897 | 0.907 | 0.763 | 0.334 | 0.269 | 0.289 | 0.28 | 0.26 | 0.61 | 0.553 | 0.527 | 0.418 |
| COR-L23 | 0.577 | 0.89 | 0.772 | 0.644 | 0.533 | 0.726 | 0.854 | 0.897 | 0.543 | 0.886 | 0.923 | 1.02 | 1.11 | 0.938 | 0.207 | 0.193 | 0.162 | 0.121 |
| NCI-H1666 | 0.914 | 1.15 | 0.731 | 0.769 | 1.03 | 0.799 | 0.806 | 0.745 | 0.468 | 0.648 | 0.654 | 0.695 | 0.618 | 0.683 | 0.544 | 0.591 | 0.489 | 0.358 |
